# Laboratory results: a melting point compilation (Tetko et al.; mined from patent text by program, amines drawn as free bases though some values may be those of a salt)
row,Compound,melting point [°C]
1,CCn1ncc(C(=O)c2ccc(S(C)(=O)=O)c(C3=NOCC3)c2C)c1OCC(=O)c1ccccc1,177 to 179
2,CC(=O)c1cn(C)c2ccc(C)cc12,119 to 121
3,O=c1ccc2c(Br)nccc2[nH]1,272 to 274
4,COC(=O)C1(C)OCC(c2ccccc2)(c2ccccc2)CO1,116
5,COc1cc(/C=C/C(=O)c2ccc(C(=O)O)cc2)cc(-c2cccs2)c1OC,231
6,CNC(=O)ON=C1OCCSC1(C)C,67 to 68
7,CCCC[C@H](NC(=O)[C@H](CC(=O)O)NC(=O)Nc1ccc([N+](=O)[O-])cc1)C(=O)OC,204 to 205
8,O=C(c1cc(O)c(O)c(O)c1)c1csc(-c2ccccc2)n1,175 to 176
9,O=C(O)c1csc(Cn2cc(C3c4ccc(Br)cc4C=Cc4cc(Br)ccc43)c(=S)[nH]c2=O)n1,215 to 217
10,O=[N+]([O-])c1ccc(Oc2ccc(S(=O)(=O)NC3CCCCC3)cc2)cc1,94
11,O=C1NCCC1=Cc1ccccc1OCC(O)CN1CCC(c2ccc3c(c2)CCCC3)CC1 (stereo not given),157 to 159
12,CCCCCCCCCCCCCC(=O)Oc1ccc([N+](=O)[O-])cc1OC(=O)CCCCCCCCCCCCC,58 to 60
13,CC(C)NC(=O)c1ccccc1,101 to 103
14,CCOC(=O)C(=O)Nc1cc(Br)c2ccccc2c1NC(=O)C(=O)OCC,164
15,CN1CCN(c2cccc3c2CC[C@@H](NC(=O)c2ccc(N4CCOCC4)cc2)C3)CC1,127 to 128
16,C=C(CC(=O)Nc1cc(Cl)cc(Cl)c1)C(=O)O,185
17,COc1ccc(Nc2nc(N)nc3c2ncn3C2CC(F)C(CO)O2)cc1 (stereo not given),190 to 191
18,COC(=O)[C@@H]1[C@@H](Cc2ccccc2)C[C@@H]2CC[C@H]1N2C,79 to 80
19,CCC1(C)CC(=O)C(C(=O)Nc2ccc(Cl)c(Cl)c2)C(=O)C1 (stereo not given),74 to 75
20,N#Cc1ccc(C(=O)N2CCN(c3ccncc3)CC2)cc1,164 to 165
21,CC(=O)N(CCC(CCN1CCCCC1)(C(N)=O)c1ccccc1Cl)C(C)C (stereo not given),141 to 147
22,Cc1ccc(-c2ccc(C(=O)Nc3ccc4nc(CN5CCOCC5)ccc4c3)cn2)cc1,214 to 216
23,C=CCOC(=O)c1ccc(COC(=O)Nc2cnc(-c3ccccc3)n(CC(=O)NC(Cc3ccccc3)C(O)C(F)(F)F)c2=O)cc1 (stereo not given),126 to 135
24,CNC(=O)C1CCc2c(C(=O)c3ccccc3)cccc21 (stereo not given),145 to 146

row,Compound,melting point [°C]
1,COC(=O)c1c(Oc2ccc(Cl)cc2N)c2ccccc2n1Cc1ccccc1,121 to 123
2,Cc1c(-c2ccc(OCc3ccccc3)cc2)n(C(=O)c2ccc(OCCN3CCCCC3)cc2)c2ccc(OCc3ccccc3)cc12,48 to 51
3,O=C(c1ccc(O)cc1)c1ccc(OCCBr)cc1,136 to 138
4,NC(=O)C1CN(CCCCN(c2ccc(F)cc2)c2ccc(F)cc2)CCN1 (stereo not given),67.4
5,COC(OC)C(=O)CC(C)(C)C(Cc1c(C)c(Br)cn1S(=O)(=O)c1ccc(C)cc1)[N+](=O)[O-] (stereo not given),114 to 115
6,O=C(O)COc1cccc2c1CCc1sc(SCCCC(c3ccccc3)c3ccccc3)nc1-2,136 to 138
7,Cc1oc(-c2ccccc2)nc1COc1cccc(CO)c1,101 to 102
8,CC(C)c1cn2ccccc2c1Sc1ccc(O)cc1,100
9,Cn1cc(CS(C)=O)c(=O)c2ccc(C(F)(F)F)cc21 (stereo not given),208 to 210
10,CC(C)(C(=O)O)c1ccc(C(=O)Nc2cn3cc(-c4cn[nH]c4)ccc3n2)cc1,306 to 307
11,CCCCn1nc2c(N)nc3c(c2c1CCS(=O)(=O)CCC)CCCC3,173 to 175
12,CC(=O)C1CCC(CNC(=O)c2cccnc2Oc2ccc(F)cc2)CC1 (stereo not given),110 to 111
13,CC(=O)Nc1coc2ccc(C(C)(C)C)cc2c1=S,215
14,CCC1c2c(ncn2CC)CCN1C(=S)NC(C)C (stereo not given),195
15,O=C(O)CCc1ccc(OCCn2c(=O)sc3cc(Cc4ccccc4)ccc32)cc1,158 to 163
16,C#CCCCCNC(=O)C(F)(F)F,41 to 42.5
17,C=C(C)CCOc1c(-c2ccc(S(C)(=O)=O)cc2)cnn(-c2ccc(F)cc2)c1=O,109 to 111
18,COC1CC(C)(C)C(O)C(OC(=O)c2ccccc2)C=C1C (stereo not given),98 to 99
19,CCN(C(=O)C(F)(F)F)c1ccc(C(=O)O)cc1,132
20,CCCCCCCCCCCCNC(=S)C1(c2ccccn2)CCCS1 (stereo not given),60
21,COc1cc(OC)cc(N2CCN(C(=S)Nc3cc(C(C)=O)c(C)nc3OC)CC2)c1,167 to 169
22,NC(=S)c1sccc1N,98 to 99
23,O=C(NCCN1CCCC1)c1ccc(-c2cnc3c(c2)N(Cc2c(Cl)cccc2Cl)C(=O)CN3)cc1,> 200
24,CC(=O)SCC(C(=O)NC(Cc1occ2ccccc12)C(=O)O)C(F)(F)F (stereo not given),147 to 149

row,Compound,melting point [°C]
1,N#CCCNC(=O)c1cccc(-c2cccc3nn(Cc4ccc(F)c(F)c4)cc23)c1,191 to 192
2,Cc1cc(F)cc(C)c1Cl,64 to 65
3,CCOC(=O)CN1C(=O)[C@@H](N)[C@H](c2ccccc2)Sc2cc(Cl)ccc21 (relative stereo),173 to 175
4,Cc1cccc(NC(=O)C2=C(O)c3ccccc3S(=O)(=O)N2C)c(=O)c1,276 to 280
5,CC(C)c1ccc(N(Cc2ccc(N(C)C)cc2)C(=O)C2CCOc3ccccc32)cc1 (stereo not given),110 to 112
6,CCOC(CN1CCOCC1)CN1C(=O)c2ccccc2CS1(=O)=O (stereo not given),128 to 129
7,Cc1cc(SC2=C(O)CC(CCc3cccc(O)c3)(CCc3cccc(O)c3)OC2=O)c(C(C)(C)C)cc1CO,92 to 94
8,COC(=O)c1cccc(Cn2ccc(OCc3ccc(F)cc3F)c(Cl)c2=O)c1F,171 to 174
9,CC(C)(C)OC(=O)N1CCCC1c1ccnc(-c2nc(=O)c3ccccc3s2)c1 (stereo not given),195 to 196
10,O=C(O)C1=CS[C@@H]2/C(=C\c3ccc4nc5n(c4c3)CCS5)C(=O)N12,> 250
11,CC(C)(C)c1ccc(C(O)CCCN2CCC(C3(O)c4ccccc4CCc4ccccc43)CC2)cc1 (stereo not given),142 to 144
12,COc1ccc(C(c2ccc(OC)c(O)c2)n2cncn2)cc1O,218 to 219
13,C=C(c1cc(F)ccc1OCCCC)n1ccnc1,107 to 109
14,COCC(COC)Oc1ccc(C#CC2(O)CN3CCC2CC3)cc1 (stereo not given),125 to 127
15,O=C(NO)C1(S(=O)(=O)c2ccc(OCC#CCN3CCOCC3)cc2)CCN(Cc2ccc(Br)cc2)CC1,94
16,CC(=O)N(CCCC(=NNC(N)=S)c1ccccc1)C(C)C,141 to 147
17,O=C(O)CCCCc1nc2c(F)c(F)cc(F)c2s1,122 to 124
18,N#CC1CN1C(=O)CNC(N)=O (stereo not given),110 to 114
19,C=Cc1c(OC)nc(-c2ccc(Cl)c(OC)c2F)nc1C(=O)OC,107 to 108
20,COc1ccc(-c2cc(=O)c3c(O)cc(O)c(-c4cc(-c5cc(=O)c6c(O)cc(OC)cc6o5)ccc4OC)c3o2)cc1,295 to 298
21,Cc1cccc(OCC(O)CNCCOc2ccccc2)c1 (stereo not given),81 to 82
22,CC(=O)c1cc(N2CCCC2)ccc1NC(=O)c1ccc(OCc2ccccc2)cc1,175 to 178
